Measured values from PubChem BioAssay AID248 (DTP/NCI, 2004).
Values joined by “and” are separate entries in the source; they are usually repeats but may differ in a detail not shown here. Identical values can stand only once. Inconclusive results and toxic doses are left out. No stated cut-off is given here; in the data, active means T/C of 150% or more; inactive means T/C below 125%.

System: L1210 leukemia ip in BDF1 mice, survival T/C
Test: NCI In Vivo Anticancer Drug Screen. Data for tumor model L1210 Leukemia (intraperitoneal) in B6D2F1 (BDF1) mice
Conditions: endpoint: mean survival time, higher = longer survival
How it was run: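 Each compound was tested against a transplantable tumor grown in mice. The endpoint was survival, with treated animals benchmarked against vehicle controls as a simple ratio.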

[1] = dose: 100.0 mg/kg/injection, schedule: Q01DX001 (ip), vehicle: carboxymethylcellulose (CMC)
[2] = dose: 200.0 mg/kg/injection, schedule: Q01DX001 (ip), vehicle: carboxymethylcellulose (CMC)
[3] = dose: 400.0 mg/kg/injection, schedule: Q01DX001 (ip), vehicle: carboxymethylcellulose (CMC)
[4] = dose: 100.0 mg/kg/injection, schedule: Q01DX001 (ip), vehicle: saline
[5] = dose: 200.0 mg/kg/injection, schedule: Q01DX001 (ip), vehicle: saline
[6] = dose: 400.0 mg/kg/injection, schedule: Q01DX001 (ip), vehicle: saline
[7] = dose: 100.0 mg/kg/injection, schedule: Q04DX002 (ip), vehicle: Klucel (hydroxypropylcellulose) (HPC)
[8] = dose: 200.0 mg/kg/injection, schedule: Q04DX002 (ip), vehicle: Klucel (hydroxypropylcellulose) (HPC)
[9] = dose: 400.0 mg/kg/injection, schedule: Q04DX002 (ip), vehicle: Klucel (hydroxypropylcellulose) (HPC)
[10] = dose: 100.0 mg/kg/injection, schedule: Q01DX001 (ip), vehicle: Klucel (hydroxypropylcellulose) (HPC)
[11] = dose: 100.0 mg/kg/injection, schedule: Q04DX003 (ip), vehicle: Klucel (hydroxypropylcellulose) (HPC)
[12] = dose: 200.0 mg/kg/injection, schedule: Q01DX001 (ip), vehicle: Klucel (hydroxypropylcellulose) (HPC)
[13] = dose: 200.0 mg/kg/injection, schedule: Q04DX003 (ip), vehicle: Klucel (hydroxypropylcellulose) (HPC)
[14] = dose: 400.0 mg/kg/injection, schedule: Q01DX001 (ip), vehicle: Klucel (hydroxypropylcellulose) (HPC)
[15] = dose: 400.0 mg/kg/injection, schedule: Q04DX003 (ip), vehicle: Klucel (hydroxypropylcellulose) (HPC)
[16] = dose: 50.0 mg/kg/injection, schedule: Q01DX001 (ip), vehicle: carboxymethylcellulose (CMC)

Measured: T/C

Cc1nc(N)nc(N)c1-c1ccccc1
inactive: [1] 100 % of control | [2] 94 % of control | [3] 92 % of control

Cn1cc(F)c(=O)[nH]c1=O
inactive: dose: 5.0 mg/kg/injection, schedule: Q01DX Z (ip), vehicle: carboxymethylcellulose (CMC) 96 % of control | dose: 10.0 mg/kg/injection, schedule: Q01DX Z (ip), vehicle: carboxymethylcellulose (CMC) 100 % of control | dose: 20.0 mg/kg/injection, schedule: Q01DX Z (ip), vehicle: carboxymethylcellulose (CMC) 113 % of control | dose: 40.0 mg/kg/injection, schedule: Q01DX Z (ip), vehicle: carboxymethylcellulose (CMC) 96 % of control

CCCCCC(=O)C(CCCC)C(=O)Nc1ccccc1 (stereo not drawn)
inactive: [1] 96 % of control | [2] 91 % of control | [3] 91 % of control

c1ccc(C2SCCCS2)cc1
inactive: dose: 100.0 mg/kg/injection, schedule: Q01DX009 (ip), vehicle: Klucel (hydroxypropylcellulose) (HPC) 96 % of control | dose: 200.0 mg/kg/injection, schedule: Q01DX009 (ip), vehicle: Klucel (hydroxypropylcellulose) (HPC) 97 % of control | dose: 400.0 mg/kg/injection, schedule: Q01DX009 (ip), vehicle: Klucel (hydroxypropylcellulose) (HPC) 94 % of control

O=[N+]([O-])c1cc(C(F)(F)F)cc([N+](=O)[O-])c1Cl
inactive: dose: 12.5 mg/kg/injection, schedule: Q01DX001 (ip), vehicle: Klucel (hydroxypropylcellulose) (HPC) 91 % of control | dose: 25.0 mg/kg/injection, schedule: Q01DX001 (ip), vehicle: Klucel (hydroxypropylcellulose) (HPC) 91 % of control

c1ccc(CCCCc2ccc(CCCCc3ccccc3)cc2)cc1
inactive: [4] 101 % of control | [5] 93 % of control | [6] 93 % of control

C/C(=N\NS(=O)(=O)c1ccc(C)cc1)C1CCSC1 (stereo not drawn)
inactive: dose: 100.0 mg/kg/injection, schedule: Q01DX009 (ip), vehicle: saline with Tween-80 93 % of control | dose: 100.0 mg/kg/injection, schedule: Q04DX003 (ip), vehicle: saline with Tween-80 111 % of control | dose: 200.0 mg/kg/injection, schedule: Q01DX009 (ip), vehicle: saline with Tween-80 101 % of control | dose: 200.0 mg/kg/injection, schedule: Q04DX003 (ip), vehicle: saline with Tween-80 98 % of control | dose: 400.0 mg/kg/injection, schedule: Q01DX009 (ip), vehicle: saline with Tween-80 90 % of control | dose: 400.0 mg/kg/injection, schedule: Q04DX003 (ip), vehicle: saline with Tween-80 96 % of control

COC(=O)C1OC(n2cnc3c(N)ncnc32)C(O)C1O (stereo not drawn)
inactive: dose: 100.0 mg/kg/injection, schedule: Q01DX005 (ip), vehicle: saline 101 % of control | dose: 200.0 mg/kg/injection, schedule: Q01DX005 (ip), vehicle: saline 101 % of control

CC(=O)CCc1ccc(Cl)cc1
inactive: dose: 50.0 mg/kg/injection, schedule: Q01DX001 (ip), vehicle: saline 101 % of control | [4] 107 % of control | [7] 105 % of control | [5] 107 % of control | [8] 105 % of control | [6] 106 % of control | [9] 105 % of control

CC(C)CCCC(=O)O
inactive: [4] 97 % of control | [5] 100 % of control | [6] 89 % of control

CCC(C(=O)c1ccccc1)C(O)(C(F)(F)F)C(F)(F)F (stereo not drawn)
inactive: [10] 96 % of control | [11] 94 % of control | [12] 106 % of control | [13] 104 % of control | [14] 95 % of control | [15] 104 % of control

Cc1cccc(NC(=O)CCc2ccc(N3C(N)=NC(N)=NC3(C)C)cc2)c1
inactive: dose: 3.13 mg/kg/injection, schedule: Q01DX009 (ip), vehicle: saline 102 % of control | dose: 6.25 mg/kg/injection, schedule: Q01DX009 (ip), vehicle: saline 94 % of control | dose: 12.5 mg/kg/injection, schedule: Q01DX009 (ip), vehicle: saline 97 % of control | dose: 25.0 mg/kg/injection, schedule: Q01DX009 (ip), vehicle: saline 96 % of control | dose: 50.0 mg/kg/injection, schedule: Q01DX009 (ip), vehicle: saline 103 % of control

CC(C)OC(=O)c1ccc([N+](=O)[O-])cc1
inactive: [7] 95 % of control | [8] 110 % of control | [9] 95 % of control

O=C(Nc1cccc2ccccc12)OCC(Cl)(Cl)Cl
inactive: dose: 100.0 mg/kg/injection, schedule: Q01DX009 (ip), vehicle: carboxymethylcellulose (CMC) 97 % of control and 98 % of control | [7] 108 % of control | dose: 100.0 mg/kg/injection, schedule: Q04DX002 (ip), vehicle: carboxymethylcellulose (CMC) 108 % of control and 90 % of control | dose: 100.0 mg/kg/injection, schedule: Q04DX003 (ip), vehicle: carboxymethylcellulose (CMC) 103 % of control | dose: 200.0 mg/kg/injection, schedule: Q01DX009 (ip), vehicle: carboxymethylcellulose (CMC) 95 % of control and 90 % of control | [8] 96 % of control | dose: 200.0 mg/kg/injection, schedule: Q04DX002 (ip), vehicle: carboxymethylcellulose (CMC) 95 % of control and 97 % of control | dose: 200.0 mg/kg/injection, schedule: Q04DX003 (ip), vehicle: carboxymethylcellulose (CMC) 97 % of control | dose: 400.0 mg/kg/injection, schedule: Q01DX009 (ip), vehicle: carboxymethylcellulose (CMC) 95 % of control and 97 % of control | [9] 108 % of control | dose: 400.0 mg/kg/injection, schedule: Q04DX002 (ip), vehicle: carboxymethylcellulose (CMC) 97 % of control and 87 % of control | dose: 400.0 mg/kg/injection, schedule: Q04DX003 (ip), vehicle: carboxymethylcellulose (CMC) 94 % of control

ClC(Cl)(Cl)C(N1CCN(c2ccccc2)CC1)N1CCN(c2ccccc2)CC1
inactive: [1] 101 % of control | [2] 106 % of control | [3] 89 % of control

Oc1[nH]c(=S)sc1/C=C1\C=Nc2ccccc21
inactive: [16] 90 % of control | [1] 92 % of control | [2] 90 % of control | [3] 90 % of control

CCCCCC[Si](CCCCCC)CCCCCC
inactive: dose: 75.0 mg/kg/injection, schedule: Q04DX003 (ip), vehicle: saline with Tween-80 93 % of control | dose: 100.0 mg/kg/injection, schedule: Q01DX009 (ip), vehicle: saline 102 % of control | dose: 150.0 mg/kg/injection, schedule: Q04DX003 (ip), vehicle: saline with Tween-80 90 % of control | dose: 200.0 mg/kg/injection, schedule: Q01DX009 (ip), vehicle: saline 105 % of control | dose: 300.0 mg/kg/injection, schedule: Q04DX003 (ip), vehicle: saline with Tween-80 88 % of control | dose: 400.0 mg/kg/injection, schedule: Q01DX009 (ip), vehicle: saline 93 % of control

Cc1ncc(CO)c(COCCC(C)C)c1O
inactive: dose: 100.0 mg/kg/injection, schedule: Q04DX002 (ip), vehicle: saline 95 % of control | dose: 200.0 mg/kg/injection, schedule: Q04DX002 (ip), vehicle: saline 98 % of control

CC(=O)C=P(c1ccccc1)(c1ccccc1)c1ccccc1
inactive: [16] 113 % of control | [1] 97 % of control | [2] 101 % of control

Nc1n[nH]c([N+](=O)[O-])n1
inactive: dose: 100.0 mg/kg/injection, schedule: Q04DX003 (ip), vehicle: saline sonified 100 % of control | dose: 200.0 mg/kg/injection, schedule: Q04DX003 (ip), vehicle: saline sonified 103 % of control | dose: 400.0 mg/kg/injection, schedule: Q04DX003 (ip), vehicle: saline sonified 109 % of control

Nc1nc(N)c2nc(CSc3ccccc3)cnc2n1
inactive: dose: 20.0 mg/kg/injection, schedule: Q01DX009 (ip), vehicle: saline with Tween-80 97 % of control | dose: 40.0 mg/kg/injection, schedule: Q01DX009 (ip), vehicle: saline with Tween-80 97 % of control | dose: 80.0 mg/kg/injection, schedule: Q01DX009 (ip), vehicle: saline with Tween-80 94 % of control

CC1Oc2ccccc2OC1NC1=NCCO1 (stereo not drawn)
inactive: [10] 97 % of control | [11] 100 % of control | [12] 103 % of control | [13] 100 % of control | [14] 102 % of control | [15] 108 % of control

O=c1ccn(O)cc1
inactive: dose: 100.0 mg/kg/injection, schedule: Q04DX002 (ip), vehicle: other 96 % of control | dose: 200.0 mg/kg/injection, schedule: Q04DX002 (ip), vehicle: other 100 % of control | dose: 400.0 mg/kg/injection, schedule: Q04DX002 (ip), vehicle: other 88 % of control

CCCCNC(N)=S
inactive: [11] 98 % of control | [13] 104 % of control | [15] 102 % of control
